The source of these data is US9562035B2, “Benzamide derivative useful as FASN inhibitors for the treatment of cancer” (Janssen Pharmaceutica NV, priority 2013, dated 2017).

As a reminder, the EC50 is the concentration at which the effect is half-maximal. Usually CC50 stands for the concentration that lowers cell viability or growth by half.

A value given as a limit tells only on which side of the number the result lay.

Common to all, as to assay type: cell-based
Data set [1] deals with HCV 1b bicistronic subgenomic luciferase reporter replicon clone ET. The experiment in a line: Antiviral Activity Against HCV (replicon cells, luciferase read-out). Conditions: Hepatitis C virus, 72 h; HCV 1b replicon clone ET, 3-day incubation, firefly luciferase read-out. How it is done: The anti-HCV activity of compounds was tested in cell culture with replicon cells generated using reagents from the Bartenschlager laboratory (the HCV 1b bicistronic subgenomic luciferase reporter replicon clone ET). The protocol included a 3-day incubation of 2500 replicon cells in a 384-well format in a nine-point 1:4 dilution series of the compound. Dose response curves were generated based on the firefly luciferase read-out.
On the technique in general: In antiviral work, replicon cells carry a viral genome segment that copies itself.

Data set [2] in a line: Cytotoxicity in HeLa cells (ATPlite). Conditions: human, in parallel to RSV assay, read-out: CC50 (Toxicity HeLa Cells). How it is done: (§1) Black 96-well clear-bottom microtiter plates (Corning, Amsterdam, The Netherlands) were filled in duplicate using a customized robot system with serial 4-fold dilutions of test compound in a final volume of 50 μl culture medium [RPMI medium without phenol red, 10% FBS, 0.04% gentamycin (50 mg/mL) and 0.5% DMSO]. Then, 100 μl of a HeLa cell suspension (5×10^4 cells/mL) in culture medium was added to each well followed by the addition of 50 μl rgRSV224 (MOI=0.02) virus in culture medium using a multidrop dispenser (Thermo Scientific, Erembodegem, Belgium). rgRSV224 virus is an engineered virus that includes an additional GFP gene (HALLAK, L. K., et. al., “Glycosaminoglycan sulfation requirements for respiratory syncytial virus infection.” J. Virol., 2000, pp 10508-10513, Vol. […]). Medium, virus- and mock-infected controls were included in each test. Cells were incubated at 37° C. in a 5% CO2 atmosphere. Three days post-virus exposure, viral replication was quantified by measuring GFP expression in the cells by a MSM laser microscope (Tibotec, Beerse, Belgium). […] In parallel, test compounds were incubated for three days in a set of white 96-well microtitier plates (Corning) and the cytotoxicity of compounds in HeLa cells was determined by measuring the ATP content of the cells using the ATPlite kit (PerkinElmer, Zaventem, Belgium) according to the manufacturer's instructions. […]
In general terms: Cellular ATP, detected with luciferase, serves as a proxy for viable cell number.

Another data set relates to rgRSV224 virus. The experiment in a line: Antiviral Activity Against RSV (GFP expression in HeLa cells). Conditions: human respiratory syncytial virus, 72 h, read-out: EC50 (RSV Antiviral Activity). How it is done: as §1

For the compound `Cc1ccc(C(=O)N2CCC(c3ccc(-c4cnn(C)c4)cc3)CC2)cc1NC(=O)c1ccc(NC(C)C)nc1` [Compound #32, 6-(isopropylamino)-N-(2-methyl-5-(4-(4-(1-methyl-1H-pyrazol-4-yl)phenyl)piperidine-1-carbonyl)phenyl)nicotinamide], the values for the EC50 (in data set [1]; with rgRSV224 virus) were 14.6 nM and 17.7 nM, respectively. The CC50 at 3 days in data set [2] is more than 25000 nM.
